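Exposure lasted 48 hours, with cells grown in 96-well plates and compounds tested at five concentrations. GI50 = concentration required for 50% inhibition of growth. Definition used: TGI = concentration required for complete inhibition of growth.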 Where a SMILES comes first, the peptide text is derived from it. [ ]: non-standard residue; d: D form.
Columns and labels:
Assay in all cases: inhibition of tumour cell growth, NCI panel, 48 h
[1] = system: A498 renal
[2] = system: A549 NSCLC
[3] = system: CAKI-1 renal
[4] = system: HCT-15 colon
[5] = system: HOP-92 NSCLC
[6] = system: KM12 colon
[7] = system: MALME-3M melanoma
[8] = system: OVCAR-5 ovarian
[9] = system: SF-539 CNS
[10] = system: SK-MEL-2 melanoma

SMILES	TGI [1]	TGI [2]	TGI [3]	TGI [4]	TGI [5]	TGI [6]	TGI [7]	TGI [8]	TGI [9]	TGI [10]	GI50 [1]	GI50 [2]	GI50 [3]	GI50 [4]	GI50 [6]	GI50 [7]	GI50 [8]	GI50 [9]	GI50 [10]	GI50 [5]
COC(=O)C(/C(=N\O)C(=O)Nc1ccc(Br)cc1)c1nc2ccccc2[nH]c1=O (stereo unspecified)	> 100 µM	> 100 µM	> 100 µM	> 100 µM	97.6 µM	> 100 µM	> 100 µM	> 100 µM	58.4 µM	49.2 µM										
CN1CCN(c2nc3cc(F)ccc3n3cccc23)CC1		> 100 µM	79 µM	> 100 µM	> 100 µM	> 100 µM	62.4 µM	> 100 µM	79.2 µM											
CCSc1nc(N)c2cnn(CC)c2n1	22.8 µM	20.9 µM	56.3 µM	25.3 µM		> 100 µM	59 µM	> 100 µM	27.3 µM	5.88 µM	3.7 µM	3.83 µM	4.63 µM	6.21 µM	3.15 µM	18 µM	27.1 µM	6.67 µM	2.12 µM	
C#C[C@@H](CCCC)OC(=O)N[C@H](C)c1ccccc1		> 100 µM	> 100 µM			> 100 µM		> 100 µM		53.1 µM										
CC(=O)/C(=C/N1CCN(C(=O)c2ccco2)C1=S)C(=O)c1ccccc1		26.9 µM	32.5 µM	18.9 µM	32.1 µM	> 50 µM	46.7 µM		3.56 µM			10.8 µM	9.29 µM	4.71 µM	8.4 µM	9.28 µM		1.09 µM		11.1 µM
N#CNC1=NCCC(=O)N1CCc1c[nH]c2ccccc12		> 100 µM		> 100 µM		> 100 µM			> 100 µM											
CC1OC(=O)N2CCC=CC12 (stereo unspecified)	> 100 µM	> 100 µM		> 100 µM		> 100 µM	> 100 µM	> 100 µM	> 100 µM	> 100 µM										
CSCC[C@H](NC(=O)[C@@H](N)CC(N)=O)C(=O)N[C@@H](Cc1c[nH]c2ccccc12)C(=O)N[C@@H](CCC(N)=O)C(=O)N[C@@H](CCC(=O)O)C(=O)N[C@H](C(=O)NCC(=O)N[C@@H](CCCCN)C(=O)N[C@H](C)C(=O)O)C(C)C (H-NMWQEVGK[dA]-OH)	> 100 µM	> 100 µM	> 100 µM	> 100 µM	> 100 µM	> 100 µM	> 100 µM	> 100 µM	> 100 µM											
COc1ccc2c(c1)C=CC1C2CC[C@]2(C)C(NC(=O)/C=C/c3ccc(O)c(O)c3)CCC12 (stereo partly specified)	53.6 µM	29.5 µM	24.7 µM	13.3 µM	26.5 µM			38.9 µM	43.5 µM	62.1 µM	19.9 µM	11.4 µM	7.1 µM	3.05 µM			20.1 µM	18.6 µM	25.7 µM	10.6 µM
CC(=O)OC1=C(CC(C)(C)C)C(=O)c2ccccc2C1=O	48.3 µM		> 100 µM	> 100 µM		> 100 µM			> 100 µM	99.4 µM										
N#C/C(=C1\OC(N)=C(c2ccc(Cl)cc2)C1=O)c1ccc(Cl)cc1	31.1 µM	50.9 µM	34.1 µM		32.2 µM	31.4 µM	34.3 µM	9.74 µM	27.6 µM											
COc1ccc(F)cc1-c1ccnc2[nH]c(C3=CCN(C4CCC(CC(=O)O)CC4)CC3)cc12 (stereo unspecified)	0.543 µM	> 100 µM	> 100 µM	> 100 µM	0.666 µM	> 100 µM	0.563 µM	> 100 µM	0.335 µM		0.21 µM	0.424 µM	0.434 µM	0.249 µM	0.0953 µM	0.206 µM	0.268 µM	0.0546 µM		0.0568 µM
Cc1c(C2CCSc3ccccc3N2)sc2ccccc12 (stereo unspecified)		> 100 µM	> 100 µM	> 100 µM	> 100 µM	> 100 µM	> 100 µM		> 100 µM	> 100 µM										
Cc1nc(-n2nc(-c3ccccc3)cc2-c2ccccc2)sc1C(=O)CC(=O)C(=O)Nc1ccc(O)cc1	> 100 µM	> 100 µM	> 100 µM	> 100 µM		> 100 µM	> 100 µM	> 100 µM	> 100 µM	> 100 µM										
COC(=O)C(C)Oc1ccc(O)cc1 (stereo unspecified)	> 100 µM	> 100 µM	> 100 µM	> 100 µM	> 100 µM	> 100 µM	> 100 µM	> 100 µM	> 100 µM											
CCOC(=O)CC(C)C1(C=O)CCCCC1=O (stereo unspecified)	> 100 µM	> 100 µM	> 100 µM	> 100 µM		> 100 µM	> 100 µM	> 100 µM	> 100 µM	> 100 µM										
N/C(CC(=O)NOC(=O)c1ccccc1)=N/OC(=O)c1ccccc1	> 100 µM	> 100 µM	> 100 µM	> 100 µM	> 100 µM	> 100 µM	> 100 µM	> 100 µM	54.8 µM											
CCCCOP1(=O)CC(C)=C(Cl)C(C)(OC)C1 (stereo unspecified)		> 100 µM		> 100 µM	> 100 µM	> 100 µM	> 100 µM		> 100 µM	> 100 µM										
CC1/C(=N/O)CC(c2ccccc2)N(N=O)C1c1ccccc1 (stereo unspecified)		> 100 µM	> 100 µM	> 100 µM	> 100 µM	> 100 µM	> 100 µM		> 100 µM	> 100 µM										
O=[N+]([O-])c1ccc2nc(-c3ccc(Cl)cc3)[nH]c2c1		70.5 µM	93.9 µM	29.1 µM	64.2 µM		63 µM		39.6 µM											
C=Cc1cc(OC)c2c(c1)c(=O)oc1c2cc(OC)c2c(O)ccc(C3OC(C(C)O)C(O)C3O)c21 (stereo unspecified)	0.00468 µM	0.414 µM			0.3 µM	0.0499 µM	0.0366 µM	0.0969 µM	0.0527 µM		0.00126 µM	0.0146 µM			0.00674 µM	0.0107 µM	0.00309 µM	0.0146 µM		0.0126 µM
COC1CC(n2cc(F)c(N)nc2=O)OC1CO (stereo unspecified)		> 100 µM	> 100 µM	> 100 µM	> 100 µM	> 100 µM	> 100 µM	> 100 µM		> 100 µM										
